Data taken from patent publication US12227496B2 (BRISTOL-MYERS SQUIBB COMPANY, priority 2019, dated 2025).

These compounds were tested against T1, human FXR (Homo sapiens, UniProt Q96RI1) (assay: transient human FXR/Gal4-luciferase reporter assay). Conditions: Gal4-hFXR LBD fusion, luciferase reporter in HEK293 cells; response relative to 8 μM GW-4064.
T1 construct: expressed in transfected cells; host or cells: HEK293 cells stably carrying a 5xGal4-response-element firefly luciferase reporter, transiently transfected with pcDNA3.1-Gal4-FXR
T1 sequence (Q96RI1 262-486 limits assumed): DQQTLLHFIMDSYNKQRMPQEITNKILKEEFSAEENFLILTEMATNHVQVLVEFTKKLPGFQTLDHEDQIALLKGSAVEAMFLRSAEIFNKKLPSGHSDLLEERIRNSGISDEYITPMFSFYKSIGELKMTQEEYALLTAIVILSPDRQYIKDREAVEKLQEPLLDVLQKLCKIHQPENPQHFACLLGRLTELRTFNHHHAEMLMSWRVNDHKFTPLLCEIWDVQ
Format: cell-based
Outline: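 HEK293 cells stably carrying a 5×Gal4-response-element firefly luciferase reporter were transiently transfected with Gal4-hFXR. They were then incubated overnight at 37 °C with compound serial dilutions in medium containing 10% charcoal/dextran-stripped FBS. Luminescence was read after Steady-Glo addition.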

Row | SMILES | EC50 [nM]
1 | COCc1nc(-c2cccc(N(CC34CCC(c5nc(C6CC6)no5)(CC3)CC4)C(=O)C3CCOCC3)c2)cs1 [Example 47, N-((4-(3-cyclopropyl-1,2,4-oxadiazol-5-yl)bicyclo[2.2.2]octan-1-yl)methyl)-N-(3-(2-(methoxymethyl)thiazol-4-yl)phenyl)tetrahydro-2H-pyran-4-carboxamide] | 121
2 | COCc1nc(-c2cccc(N(CC34CCC(c5nc(C6CC6)no5)(CC3)CC4)C(=O)C3CCN(C(=O)OC(C)(C)C)CC3)c2)cs1 [Example 48, tert-butyl 4-(((4-(3-cyclopropyl-1,2,4-oxadiazol-5-yl)bicyclo[2.2.2]octan-1-yl)methyl)(3-(2-(methoxymethyl)thiazol-4-yl)phenyl)carbamoyl)piperidine-1-carboxylate] | 856
3 | COCc1nc(-c2cccc(N(CC34CCC(c5nc(C6CC6)no5)(CC3)CC4)C(=O)C3CCCCC3)c2)cs1 [Example 49, N-((4-(3-cyclopropyl-1,2,4-oxadiazol-5-yl)bicyclo[2.2.2]octan-1-yl)methyl)-N-(3-(2-(methoxymethyl)thiazol-4-yl)phenyl)cyclohexanecarboxamide] | 105
4 | Cn1nc(-c2cccc(N(CC34CCC(c5nc(C6CC6)no5)(CC3)CC4)C(=O)C3CCOCC3)c2)cc1C1CC1 [Example 50, N-((4-(3-cyclopropyl-1,2,4-oxadiazol-5-yl)bicyclo[2.2.2]octan-1-yl)methyl)-N-(3-(5-cyclopropyl-1-methyl-1H-pyrazol-3-yl)phenyl)tetrahydro-2H-pyran-4-carboxamide] | 334
5 | CCn1cc(-c2cccc(N(CC34CCC(c5nc(C6CC6)no5)(CC3)CC4)C(=O)C3CCOCC3)c2)oc1=O [Example 51, N-((4-(3-cyclopropyl-1,2,4-oxadiazol-5-yl)bicyclo[2.2.2]octan-1-yl)methyl)-N-(3-(3-ethyl-2-oxo-2,3-dihydrooxazol-5-yl)phenyl)tetrahydro-2H-pyran-4-carboxamide] | 1190
6 | COCc1coc(-c2cccc(N(CC34CCC(c5nc(C6CC6)no5)(CC3)CC4)C(=O)C3CCOCC3)c2)n1 [Example 53, N-((4-(3-cyclopropyl-1,2,4-oxadiazol-5-yl)bicyclo[2.2.2]octan-1-yl)methyl)-N-(3-(4-(methoxymethyl)oxazol-2-yl)phenyl)tetrahydro-2H-pyran-4-carboxamide] | 189
7 | O=C(C1CCOCC1)N(CC12CCC(c3nc(C4CC4)no3)(CC1)CC2)c1cccc(-c2nnc(C3CC3)o2)c1 [Example 54, N-((4-(3-cyclopropyl-1,2,4-oxadiazol-5-yl)bicyclo[2.2.2]octan-1-yl)methyl)-N-(3-(5-cyclopropyl-1,3,4-oxadiazol-2-yl)phenyl)tetrahydro-2H-pyran-4-carboxamide] | 373
8 | O=C(N1CCOCC1)N(CC12CCC(c3nc(C4CC4)no3)(CC1)CC2)c1cccc(-c2nc(C3CC3)no2)c1 [Example 56, N-((4-(3-cyclopropyl-1,2,4-oxadiazol-5-yl)bicyclo[2.2.2]octan-1-yl)methyl)-N-(3-(3-cyclopropyl-1,2,4-oxadiazol-5-yl)phenyl)morpholine-4-carboxamide] | 739
9 | O=C(N1CCCCC1)N(CC12CCC(c3nc(C4CC4)no3)(CC1)CC2)c1cccc(-c2nc(C3CC3)no2)c1 [Example 57, N-((4-(3-cyclopropyl-1,2,4-oxadiazol-5-yl)bicyclo[2.2.2]octan-1-yl)methyl)-N-(3-(3-cyclopropyl-1,2,4-oxadiazol-5-yl)phenyl) piperidine-1-carboxamide] | 819

Now from value to compound:

Row | EC50 [nM] | SMILES
10 | 413 | O=C(N1CCC(F)(F)CC1)N(CC12CCC(c3nc(C4CC4)no3)(CC1)CC2)c1cccc(-c2nc(C3CC3)no2)c1 [Example 58, N-((4-(3-cyclopropyl-1,2,4-oxadiazol-5-yl)bicyclo[2.2.2]octan-1-yl)methyl)-N-(3-(3-cyclopropyl-1,2,4-oxadiazol-5-yl)phenyl)-4,4-difluoropiperidine-1-carboxamide]
11 | 1380 | CN1CCN(C(=O)N(CC23CCC(c4nc(C5CC5)no4)(CC2)CC3)c2cccc(-c3nc(C4CC4)no3)c2)CC1 [Example 59, N-((4-(3-cyclopropyl-1,2,4-oxadiazol-5-yl)bicyclo[2.2.2]octan-1-yl)methyl)-N-(3-(3-cyclopropyl-1,2,4-oxadiazol-5-yl)phenyl)-4-methylpiperazine-1-carboxamide]
12 | 1020 | CC1CCN(C(=O)N(CC23CCC(c4nc(C5CC5)no4)(CC2)CC3)c2cccc(-c3nc(C4CC4)no3)c2)CC1 [Example 60, N-((4-(3-cyclopropyl-1,2,4-oxadiazol-5-yl)bicyclo[2.2.2]octan-1-yl)methyl)-N-(3-(3-cyclopropyl-1,2,4-oxadiazol-5-yl)phenyl)-4-methylpiperidine-1-carboxamide]
13 | 3670 | O=C(N1CCC(O)CC1)N(CC12CCC(c3nc(C4CC4)no3)(CC1)CC2)c1cccc(-c2nc(C3CC3)no2)c1 [Example 61, N-((4-(3-cyclopropyl-1,2,4-oxadiazol-5-yl)bicyclo[2.2.2]octan-1-yl)methyl)-N-(3-(3-cyclopropyl-1,2,4-oxadiazol-5-yl)phenyl)-4-hydroxypiperidine-1-carboxamide]
14 | 1130 | CC1CN(C(=O)N(CC23CCC(c4nc(C5CC5)no4)(CC2)CC3)c2cccc(-c3nc(C4CC4)no3)c2)CC(C)O1 (stereo not shown) [Example 63, N-((4-(3-cyclopropyl-1,2,4-oxadiazol-5-yl)bicyclo[2.2.2]octan-1-yl)methyl)-N-(3-(3-cyclopropyl-1,2,4-oxadiazol-5-yl)phenyl)-2,6-dimethylmorpholine-4-carboxamide]
15 | 4820 | O=C(N1CCC(N2CCCCC2)CC1)N(CC12CCC(c3nc(C4CC4)no3)(CC1)CC2)c1cccc(-c2nc(C3CC3)no2)c1 [Example 64, N-((4-(3-cyclopropyl-1,2,4-oxadiazol-5-yl)bicyclo[2.2.2]octan-1-yl)methyl)-N-(3-(3-cyclopropyl-1,2,4-oxadiazol-5-yl)phenyl)-[1,4′-bipiperidine]-1′-carboxamide]
16 | 162 | CC(C)(C)c1noc(C23CCC(CN(C(=O)C4CCOCC4)c4cccc(-c5nc(C6CC6)no5)c4)(CC2)CC3)n1 [Example 69, N-((4-(3-(tert-butyl)-1,2,4-oxadiazol-5-yl)bicyclo[2.2.2]octan-1-yl)methyl)-N-(3-(3-cyclopropyl-1,2,4-oxadiazol-5-yl)phenyl)tetrahydro-2H-pyran-4-carboxamide]
17 | 307 | COc1cccc(-c2cccc(N(CC34CCC(c5nc(C)no5)(CC3)CC4)C(=O)C3CCCCC3)c2)c1 [Example 72, N-(3′-methoxy-[1,1′-biphenyl]-3-yl)-N-((4-(3-methyl-1,2,4-oxadiazol-5-yl)bicyclo[2.2.2]octan-1-yl)methyl)cyclohexanecarboxamide]
18 | 517 | COc1cc(-c2cccc(N(CC34CCC(c5nc(C)no5)(CC3)CC4)C(=O)C3CCCCC3)c2)ccn1 [Example 73, N-(3-(2-methoxypyridin-4-yl)phenyl)-N-((4-(3-methyl-1,2,4-oxadiazol-5-yl)bicyclo[2.2.2]octan-1-yl)methyl)cyclohexane carboxamide]
19 | 151 | COc1cccc(-c2cccc(N(CC34CCC(c5nc(C6CC6)no5)(CC3)CC4)C(=O)C3CCCCC3)c2)c1 [Example 74, N-((4-(3-cyclopropyl-1,2,4-oxadiazol-5-yl)bicyclo[2.2.2]octan-1-yl)methyl)-N-(3′-methoxy-[1,1′-biphenyl]-3-yl)cyclohexanecarboxamide]
